Source: ChEMBL document CHEMBL3885881, “DrugMatrix”

Organism: Rattus norvegicus
Assay: DrugMatrix - Regimen: Daily Repeat
Format: toxicity, organism-based, Sprague-Dawley
Parameters: regimen Daily Repeat, gender Male, age 6-8 weeks
Settings: in vivo, po, 20 mg/kg, tissue Plasma, route oral GAVAGE, dose level Low, vehicle 100 % WATER

COc1ccc(CCN(C)CCCC(C#N)(c2ccc(OC)c(OC)c2)C(C)C)cc1OC (configuration not stated)
POTASSIUM (72 h, time 3 day): 6.68 MEQ/L
POTASSIUM (120 h, time 5 day): 6.29 MEQ/L
